Experimental data published in paper PMC10746543, “Design principles for cyclin K molecular glue degraders” (Nature Chemical Biology, 2023).
Several values for one entry are separate records, joined by “and”; a condition that tells them apart may be missing. Identical values can stand only once. Like-named read-outs stand apart in the source and are kept apart here.

Columns and labels:
[1] = tested on: HEK293T cells; assay: Drug sensitivity assay (CellTiter-Glo viability) with or without MLN4924 pretreatment; type: cell-based, human; details: Supplementary Table 2; for EC50: Homo sapiens, HEK-293T, HEK293T viability, 72 h, compound alone, read-out: Cellular assays EC50; for Toxicity rescue: MLN4924-mediated cytotoxicity rescue, 10 µM used where n.d.
Outline: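 HEK293T–Cas9, 0.15 × 10^6 ml^−1; pretreat DMSO vs 100 nM MLN4924; drugs dispensed after 2 h; 3 d exposure; CellTiter-Glo; viability vs DMSO control.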

[2] = target: T1, CDK9–cyclin T (Homo sapiens, UniProt P50750); assay: Lanthascreen kinase binding assay, CDK9; details: for IC50: Supplementary Table 2, read-out: Lanthascreen IC50 [nM] CDK9; for Lanthascreen TR-FRET signal (raw ratio), sheet CDK9: duplicates
T1 construct: purchased Thermo Fisher
Protocol: Lanthascreen experiments were performed using commercially available reagents (Thermo Fisher) and according to the manufacturer’s instructions.

[3] = tested on: cyclin K–eGFP degradation reporter; assay: Cyclin K reporter stability analysis (dual-color cyclin K–eGFP reporter); type: cell-based, human
Outline: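 A 5 h treatment of HEK293T–Cas9 cells expressing the degradation reporter preceded flow cytometry; eGFP over mCherry, normalized to DMSO.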

[4] = compound 1.02544 nM, first titration set (r1)
[5] = compound 3.15521 nM, first titration set (r1)
[6] = compound 9.46563 nM, first titration set (r1)
[7] = compound 31.5521 nM, first titration set (r1)
[8] = compound 99.3891 nM, first titration set (r1)
[9] = compound 315.521 nM, first titration set (r1)
[10] = compound 3155.21 nM, first titration set (r1)
[11] = compound 10002 nM, first titration set (r1)
[12] = source data sheet correlations, read-out: DC50
[13] = compound 0.038147 nM, second titration set (r13)
[14] = compound 0.152588 nM, second titration set (r13)
[15] = compound 0.610352 nM, second titration set (r13)
[16] = compound 9.76563 nM, second titration set (r13)
[17] = compound 39.0625 nM, second titration set (r13)
[18] = compound 156.25 nM, second titration set (r13)
[19] = compound 625 nM, second titration set (r13)
[20] = compound 2500 nM, second titration set (r13)
[21] = compound 10000 nM, second titration set (r13)

T1 sequence (P50750 whole entry): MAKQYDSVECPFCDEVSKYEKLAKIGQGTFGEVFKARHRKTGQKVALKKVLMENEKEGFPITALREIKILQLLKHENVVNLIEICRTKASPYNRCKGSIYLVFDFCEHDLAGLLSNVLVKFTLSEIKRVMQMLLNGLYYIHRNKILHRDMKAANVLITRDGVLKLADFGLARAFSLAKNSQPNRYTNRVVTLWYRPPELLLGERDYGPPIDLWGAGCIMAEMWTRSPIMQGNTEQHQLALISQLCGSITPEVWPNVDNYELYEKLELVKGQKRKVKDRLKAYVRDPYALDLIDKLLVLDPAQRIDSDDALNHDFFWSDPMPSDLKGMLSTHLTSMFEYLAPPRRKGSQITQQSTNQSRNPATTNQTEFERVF
T1 sequence (O60563 whole entry partner): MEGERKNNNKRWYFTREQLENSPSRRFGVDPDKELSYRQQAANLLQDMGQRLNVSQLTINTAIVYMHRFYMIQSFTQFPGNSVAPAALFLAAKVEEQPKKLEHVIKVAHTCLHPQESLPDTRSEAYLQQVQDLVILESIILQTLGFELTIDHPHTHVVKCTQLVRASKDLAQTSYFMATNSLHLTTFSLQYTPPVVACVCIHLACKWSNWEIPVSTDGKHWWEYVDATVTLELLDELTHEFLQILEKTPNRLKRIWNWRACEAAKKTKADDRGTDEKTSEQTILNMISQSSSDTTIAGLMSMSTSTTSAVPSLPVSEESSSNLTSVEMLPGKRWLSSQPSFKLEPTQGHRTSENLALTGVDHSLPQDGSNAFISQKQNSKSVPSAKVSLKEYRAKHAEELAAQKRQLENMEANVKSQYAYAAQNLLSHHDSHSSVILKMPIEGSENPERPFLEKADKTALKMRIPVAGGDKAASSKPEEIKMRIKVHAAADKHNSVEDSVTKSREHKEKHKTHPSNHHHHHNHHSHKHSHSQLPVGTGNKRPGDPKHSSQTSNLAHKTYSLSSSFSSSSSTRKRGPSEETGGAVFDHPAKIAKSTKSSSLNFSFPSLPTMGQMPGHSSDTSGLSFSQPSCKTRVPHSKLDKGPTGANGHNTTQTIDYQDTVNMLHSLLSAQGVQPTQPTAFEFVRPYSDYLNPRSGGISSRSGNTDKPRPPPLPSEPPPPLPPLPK

Cc1cc2nc(CNc3nc(N4CCN(C)CC4)nc4c(Br)cnn34)[nH]c2cc1C [DS73, reference compound]
EC50 [1]: 2 nM
Toxicity rescue [1]: 850%
IC50 [2]: 557 nM
Lanthascreen TR-FRET signal (raw ratio), sheet CDK9 [2, 4]: 0.01409 and 0.01452
Lanthascreen TR-FRET signal (raw ratio), sheet CDK9 [2, 5]: 0.01533 and 0.01444
Lanthascreen TR-FRET signal (raw ratio), sheet CDK9 [2, 6]: 0.01086 and 0.01492
Lanthascreen TR-FRET signal (raw ratio), sheet CDK9 [2, 7]: 0.01278 and 0.01412
Lanthascreen TR-FRET signal (raw ratio), sheet CDK9 [2, 8]: 0.01498 and 0.0129
Lanthascreen TR-FRET signal (raw ratio), sheet CDK9 [2, 9]: 0.01059 and 0.008471
Lanthascreen TR-FRET signal (raw ratio), sheet CDK9 [2, 10]: 0.004926 and 0.00557
Lanthascreen TR-FRET signal (raw ratio), sheet CDK9 [2, 11]: 0.002868 and 0.004276
DC50 [3, 12]: 1 nM

Cc1ccc(C(=O)N2CSCC2C(=O)Nc2ncc(C)s2)o1 (stereo not drawn) [dCeMM4]
EC50 [1]: 2630 nM
Toxicity rescue [1]: 281%
IC50 [2]: 2460 nM
Lanthascreen TR-FRET signal (raw ratio), sheet CDK9 [2, 13]: 0.01401 and 0.01443
Lanthascreen TR-FRET signal (raw ratio), sheet CDK9 [2, 14]: 0.01297 and 0.01342
Lanthascreen TR-FRET signal (raw ratio), sheet CDK9 [2, 15]: 0.01434 and 0.01401
Lanthascreen TR-FRET signal (raw ratio), sheet CDK9 [2, 4]: 0.01509 and 0.01456
Lanthascreen TR-FRET signal (raw ratio), sheet CDK9 [2, 5]: 0.01409 and 0.01238
Lanthascreen TR-FRET signal (raw ratio), sheet CDK9 [2, 6]: 0.01419 and 0.01391
Lanthascreen TR-FRET signal (raw ratio), sheet CDK9 [2, 16]: 0.01424 and 0.01466
Lanthascreen TR-FRET signal (raw ratio), sheet CDK9 [2, 7]: 0.01363 and 0.01274
Lanthascreen TR-FRET signal (raw ratio), sheet CDK9 [2, 17]: 0.01378 and 0.01422
Lanthascreen TR-FRET signal (raw ratio), sheet CDK9 [2, 8]: 0.01334 and 0.01404
Lanthascreen TR-FRET signal (raw ratio), sheet CDK9 [2, 18]: 0.01404 and 0.01353
Lanthascreen TR-FRET signal (raw ratio), sheet CDK9 [2, 9]: 0.01521 and 0.01465
Lanthascreen TR-FRET signal (raw ratio), sheet CDK9 [2, 19]: 0.01264 and 0.01274
Lanthascreen TR-FRET signal (raw ratio), sheet CDK9 [2, 20]: 0.01019 and 0.009296
Lanthascreen TR-FRET signal (raw ratio), sheet CDK9 [2, 10]: 0.008036 and 0.01025
Lanthascreen TR-FRET signal (raw ratio), sheet CDK9 [2, 21]: 0.006352 and 0.006436
Lanthascreen TR-FRET signal (raw ratio), sheet CDK9 [2, 11]: 0.007034 and 0.007071
DC50 [3, 12]: 1210 nM

O=C(CSc1nc2ccccc2[nH]1)Nc1ccc(Cl)cn1 [dCeMM3]
EC50 [1]: > 10000 nM
Toxicity rescue [1]: 0%
IC50 [2]: 3020 nM
Lanthascreen TR-FRET signal (raw ratio), sheet CDK9 [2, 13]: 0.01294 and 0.01365
Lanthascreen TR-FRET signal (raw ratio), sheet CDK9 [2, 14]: 0.0141 and 0.01339
Lanthascreen TR-FRET signal (raw ratio), sheet CDK9 [2, 15]: 0.0143 and 0.01462
Lanthascreen TR-FRET signal (raw ratio), sheet CDK9 [2, 4]: 0.01545 and 0.0134
Lanthascreen TR-FRET signal (raw ratio), sheet CDK9 [2, 5]: 0.01353 and 0.01504
Lanthascreen TR-FRET signal (raw ratio), sheet CDK9 [2, 6]: 0.01222 and 0.01325
Lanthascreen TR-FRET signal (raw ratio), sheet CDK9 [2, 16]: 0.01396 and 0.01385
Lanthascreen TR-FRET signal (raw ratio), sheet CDK9 [2, 7]: 0.0135 and 0.01525
Lanthascreen TR-FRET signal (raw ratio), sheet CDK9 [2, 17]: 0.0129 and 0.01348
Lanthascreen TR-FRET signal (raw ratio), sheet CDK9 [2, 8]: 0.01289 and 0.01231
Lanthascreen TR-FRET signal (raw ratio), sheet CDK9 [2, 18]: 0.01372 and 0.01352
Lanthascreen TR-FRET signal (raw ratio), sheet CDK9 [2, 9]: 0.01199 and 0.01288
Lanthascreen TR-FRET signal (raw ratio), sheet CDK9 [2, 19]: 0.01085 and 0.01132
Lanthascreen TR-FRET signal (raw ratio), sheet CDK9 [2, 20]: 0.0085 and 0.007435
Lanthascreen TR-FRET signal (raw ratio), sheet CDK9 [2, 10]: 0.006467 and 0.007084
Lanthascreen TR-FRET signal (raw ratio), sheet CDK9 [2, 21]: 0.00463 and 0.004475
Lanthascreen TR-FRET signal (raw ratio), sheet CDK9 [2, 11]: 0.0026 and 0.00423
DC50 ([3]; Supplementary Table 2, HEK293T cycK-eGFP reporter, 5 h, read-out: Cellular assays DC50): > 10000 nM

O=C(CSc1nnc2c(n1)[nH]c1ccccc12)Nc1ccc(Cl)cn1 [dCeMM2]
EC50 [1]: 1420 nM
Toxicity rescue [1]: 398%
IC50 [2]: 1110 nM
Lanthascreen TR-FRET signal (raw ratio), sheet CDK9 [2, 13]: 0.01383 and 0.01355
Lanthascreen TR-FRET signal (raw ratio), sheet CDK9 [2, 14]: 0.0139 and 0.01441
Lanthascreen TR-FRET signal (raw ratio), sheet CDK9 [2, 15]: 0.01347 and 0.01396
Lanthascreen TR-FRET signal (raw ratio), sheet CDK9 [2, 4]: 0.01429 and 0.01561
Lanthascreen TR-FRET signal (raw ratio), sheet CDK9 [2, 5]: 0.01467 and 0.01402
Lanthascreen TR-FRET signal (raw ratio), sheet CDK9 [2, 6]: 0.01439 and 0.01388
Lanthascreen TR-FRET signal (raw ratio), sheet CDK9 [2, 16]: 0.01427 and 0.01339
Lanthascreen TR-FRET signal (raw ratio), sheet CDK9 [2, 7]: 0.01459 and 0.0177
Lanthascreen TR-FRET signal (raw ratio), sheet CDK9 [2, 17]: 0.01365 and 0.01337
Lanthascreen TR-FRET signal (raw ratio), sheet CDK9 [2, 8]: 0.01319 and 0.01787
Lanthascreen TR-FRET signal (raw ratio), sheet CDK9 [2, 18]: 0.01319 and 0.01335
Lanthascreen TR-FRET signal (raw ratio), sheet CDK9 [2, 9]: 0.01154 and 0.01497
Lanthascreen TR-FRET signal (raw ratio), sheet CDK9 [2, 19]: 0.01033 and 0.01039
Lanthascreen TR-FRET signal (raw ratio), sheet CDK9 [2, 20]: 0.00843 and 0.008233
Lanthascreen TR-FRET signal (raw ratio), sheet CDK9 [2, 10]: 0.01003 and 0.01129
Lanthascreen TR-FRET signal (raw ratio), sheet CDK9 [2, 21]: 0.006379 and 0.005879
Lanthascreen TR-FRET signal (raw ratio), sheet CDK9 [2, 11]: 0.009746 and 0.009366
DC50 [3, 12]: 633 nM
